According to PubChem BioAssay (NCI):
“And” between values parts separate entries of the source, which are not always exact repeats. Equal entries are not always repeated.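 Protocol summary: plate cells (96-well), add compound at 5 concentrations, incubate 48 h, interpolate endpoints linearly. GI50 marks 50% less growth. TGI: total growth inhibition.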

Columns and labels:
Experiment in all cases: inhibition of tumour cell growth, NCI panel, 48 h
SN12C renal = tested on: SN12C renal
COLO 205 colon = tested on: COLO 205 colon
TK-10 renal = tested on: TK-10 renal
786-0 renal = tested on: 786-0 renal
SR leukemia = tested on: SR leukemia
SW-620 colon = tested on: SW-620 colon
SK-OV-3 ovarian = tested on: SK-OV-3 ovarian
UO-31 renal = tested on: UO-31 renal
DU-145 prostate = tested on: DU-145 prostate
MDA-MB-435 = tested on: MDA-MB-435

Compound | TGI (SN12C renal) | TGI (COLO 205 colon) | TGI (TK-10 renal) | TGI (786-0 renal) | TGI (SR leukemia) [µM] | TGI (SW-620 colon) | TGI (SK-OV-3 ovarian) | TGI (UO-31 renal) | GI50 (SN12C renal) | GI50 (COLO 205 colon) | GI50 (TK-10 renal) | GI50 (786-0 renal) | GI50 (SW-620 colon) | GI50 (SK-OV-3 ovarian) | GI50 (UO-31 renal) [µM] | GI50 (DU-145 prostate) | TGI (DU-145 prostate) | GI50 (MDA-MB-435) | TGI (MDA-MB-435) | GI50 (SR leukemia) [µM]
NC(=S)NNc1c([N+](=O)[O-])cnn(-c2ccccc2)c1=O | 31.4 µM | 26.7 µM | 46.6 µM | 35.1 µM | > 100 | 26.4 µM | 36 µM | 38 µM |  |  |  |  |  |  |  |  |  |  |  | 
CCCCN(CCCC)c1c([N+](=O)[O-])c(=O)nc2ccccn12 | > 100 µM | > 100 µM | 85 µM | > 100 µM | > 100 | > 100 µM | > 100 µM | 94 µM |  |  |  |  |  |  |  |  |  |  |  | 
CCC1=NC(CO)[C@H](c2ccccc2)O1 (stereo partly drawn) | > 100 µM | > 100 µM | > 100 µM | > 100 µM | > 100 | > 100 µM |  |  |  |  |  |  |  |  |  |  |  |  |  | 
O=[N+]([O-])c1cnn(C2=CNc3ccccc3N=C2)c1 | > 100 µM | > 100 µM | > 100 µM | > 100 µM | > 100 |  | > 100 µM | > 100 µM |  |  |  |  |  |  |  |  |  |  |  | 
Cc1cccc(-n2c(=S)[nH]c3c(sc(=O)n3-c3ccccc3C)c2=O)c1 | > 100 µM | > 100 µM |  | > 100 µM | > 100 | > 100 µM | > 100 µM | > 100 µM |  |  |  |  |  |  |  |  |  |  |  | 
CN1CC[C@]2(C)c3ccc(O)cc3CC3CCCC1C32C (stereo partly drawn) | > 100 µM | > 100 µM | > 100 µM | > 100 µM | > 100 |  | > 100 µM | > 100 µM |  |  |  |  |  |  |  |  |  |  |  | 
C/C=C/C=C/C=C/C=C/C(=O)O | > 100 µM | > 100 µM |  | > 100 µM | > 100 | > 100 µM | > 100 µM | > 100 µM |  |  |  |  |  |  |  |  |  |  |  | 
Cc1cccc(C)c1NC(=O)C1C(=O)N(c2c(C)cccc2C)C(=O)/C1=N\NC(N)=S (stereo not drawn) | > 100 µM |  | > 100 µM | > 100 µM |  | > 100 µM |  | > 100 µM |  |  |  |  |  |  |  |  |  |  |  | 
Cc1ccc(-c2cc(-c3ccccc3)c(C#N)c(=O)n2C2OC(CO)C(O)C(O)C2O)cc1 (stereo not drawn) | > 100 µM | > 100 µM | > 100 µM | > 100 µM |  | > 100 µM | > 100 µM | > 100 µM |  |  |  |  |  |  |  |  |  |  |  | 
Cc1ccc(-c2cc(-c3ccco3)c(C#N)c(=O)n2C2OC(OC(=O)c3ccccc3)C(OC(=O)c3ccccc3)C2OC(=O)c2ccccc2)cc1 (stereo not drawn) | > 100 µM |  | > 100 µM | > 100 µM | > 100 | > 100 µM | > 100 µM | > 100 µM |  |  |  |  |  |  |  |  |  |  |  | 
COC1OC(CO)C(O)C1N (stereo not drawn) | > 100 µM | > 100 µM | > 100 µM | > 100 µM | > 100 | > 100 µM | > 100 µM |  |  |  |  |  |  |  |  |  |  |  |  | 
CC[C@]1(O)C(=O)OCc2c1cc1n(c2=O)Cc2cc3c(N)cccc3nc2-1 | > 100 µM | > 100 µM | > 100 µM | > 100 µM | > 100 | > 100 µM | > 100 µM | > 100 µM |  |  |  |  |  |  |  |  |  |  |  | 
N.N.N.N.O=C([O-])C(Cl)Cl.O=C([O-])C(Cl)Cl.[Co+3].[O-][Cl+3]([O-])([O-])[O-] | > 100 µM | > 100 µM | > 100 µM | > 100 µM |  | > 100 µM | > 100 µM | > 100 µM | > 100 µM | > 100 µM | > 100 µM | > 100 µM | > 100 µM | > 100 µM | > 100 |  |  |  |  | 
COc1ccc(/C=C\c2cc(OC)c(O[Si](C)(C)C(C)(C)C)c(OC)c2)cc1 | > 100 µM | > 100 µM |  | > 100 µM | 56.2 | > 100 µM | > 100 µM | > 100 µM |  |  |  |  |  |  |  |  |  |  |  | 
CCOC(=O)/C=C/C1=C(c2cccs2)c2ccccc2CC1 | > 100 µM | 46.3 µM | 64.3 µM | > 100 µM |  | > 100 µM | > 100 µM | > 100 µM | 28.3 µM | 17 µM | 17.9 µM | 35.5 µM | 31.1 µM | 31.6 µM | 33.5 | 22.6 µM | 58.6 µM | 20.6 µM | 51.3 µM | 
CCn1c2ccc(O)cc2c2c(C)c3c[n+](C)ccc3c(C)c21 | 3.03 µM | 17.3 µM | > 100 µM | > 100 µM |  | > 100 µM | 83.8 µM | > 100 µM | 0.152 µM | 3.03 µM | 24.3 µM | 0.52 µM | 3.85 µM | 7.41 µM | 14.9 | 5.25 µM | > 100 µM | 9.17 µM | 50.9 µM | 
COc1cc2ncnc(Nc3ccc(F)c(Cl)c3)c2cc1NC(=O)/C=C/CN1CCCCC1 | 3.35 µM and 2.3 µM | 3.43 µM and 4.18 µM | 1.68 µM and 2.3 µM | 2.98 µM and 2.75 µM |  | 4.42 µM and 3.54 µM | 2.3 µM and 2.23 µM | 2.23 µM and 1.99 µM | 0.429 µM and 0.389 µM | 1.68 µM and 2 µM | < 0.01 µM and 0.00151 µM | 1.5 µM and 1.29 µM | 1.84 µM and 1.64 µM | 0.0171 µM and 0.00478 µM |  | 0.365 µM and 0.401 µM | 11.4 µM and > 10 µM | 1.6 µM and 1.46 µM | 3.42 µM and 2.95 µM | 
COc1ccc(/C=C2\CCCC(C(NO)c3ccc(OC)cc3)C2=NO)cc1 (stereo not drawn) | > 100 µM | > 100 µM | > 100 µM | > 100 µM |  | > 100 µM | > 100 µM | 75.7 µM |  |  |  |  |  |  |  |  |  |  |  | 
COc1cc(/C=C2\C(=O)Nc3ccc(N(C)C)cc32)cc(OC)c1OC | 42.3 µM | 4.73 µM | 40.6 µM | 33.3 µM | 2.4 | > 100 µM | 30.4 µM | > 87.4 µM | 4.26 µM | 1.89 µM | 6.42 µM | 4.3 µM | 2.7 µM | 3.55 µM | 3.17 | 3.08 µM | > 29.3 µM |  |  | 0.34
CCOC(=O)c1cc(/C=C/C(C)=C/C(=O)OC)oc1C |  | > 100 µM | > 100 µM | > 100 µM | > 100 | > 100 µM | > 100 µM | > 100 µM |  |  |  |  |  |  |  |  |  |  |  | 
Cn1c2c(c3ccc(Cl)c(Cl)c31)C(C#N)C1(CCNCC1)NC2=O (stereo not drawn) | 12.6 µM | 2.54 µM | 3.46 µM | 3.36 µM |  | 3.26 µM | 8.97 µM | 4.46 µM | 2.51 µM | 1.19 µM | 1.23 µM | 1.66 µM | 1.65 µM | 2.73 µM | 1.23 | 1.56 µM | 3.03 µM | 1.4 µM | 2.9 µM | 
